Marks after values point to notes of the source that are not given here.
Experiments:
[1] = Photophysical properties (excitation and emission maxima in PBS); type: physicochemical; details: 10 μM solution in PBS
Description: 3.2. Photophysical properties and protein binding. In general, renally excretable compounds are dissolved in PBS buffer to form a 2 mM stock solution. The UV absorbance properties are determined on a 100 μM solution in PBS using a UV-3101PC UV-Vis-NIR Scanning spectrophotometer system from Shimadzu. The fluorescence properties (λex, λem, and CPS at λem) are determined on a 10 μM solution in PBS using a Fluorolog-3 spectrofluorometer system from Jobin Yvon Horiba. The percent plasma protein binding are determined on a 20 μM compound solution in rat plasma incubated at 37° C. for 1 h. The separation of free from bound is made using an Amicon Centrifree YM-30 device (Regenerated Cellulose 30,000 MWCO) and a Z400K Refrigerated Universal Centrifuge from Hermle. The concentration of protein-free is determined via HPLC analysis using a set of external calibration standards and fluorescence detection.

[2] = Urine elimination studies; type: in vivo, Sprague-Dawley rats; details: rat, 1 mL of 2 mM in PBS by tail vein injection, 6 h post injection; mean ± SEM
Description: 3.3. Urine elimination studies. Rat urine elimination studies are conducted in either conscious or anesthetized Sprague-Dawley rats. The test compound (1 mL, 2 mM in PBS) is administered by tail vein injection into conscious, restrained rats, with subsequent collection of urine at the time points of 2, 4 and 6 h post injection. The metabolic cages are washed with water to maximize the recovery of urine discharged at each time point. Alternatively, rats are anesthetized with 100 mg/kg Inactin intraperitoneally, a trachea tube is inserted to maintain adequate respiration, and 1 mL of test compound is injected into the lateral tail vein. Rats are placed on 37° C. heating pad during the entire experiment. At 6 h post injection, the abdomen is opened, and the urine is removed from the bladder using a 21 gauge needle and a 3 cc syringe. Quantitation of each compound in urine is performed via HPLC analysis using a set of external calibration standards and fluorescence detection. The percent recovery of compound in urine at each time point is calculated based on the balance of mass.

[3] = Non-invasive optical pharmacokinetic studies (fluorescence at the ear); type: in vivo, Sprague-Dawley rats; details: rat, 1 mL of 2 mM solution into tail vein, fluorescence monitored at the ear; mean ± SEM
Description: 3.4. Non-Invasive optical pharmacokinetic studies. Male Sprague-Dawley rats (330-380 g) are anesthetized by Inactin (I.P.) or 2% Isoflurane gas anesthesia delivered by a small rodent gas anesthesia machine (RC2, Vetequip, Pleasanton, Calif.). The animals are placed on a heated board where temperature is maintained between 36-38° C. One ear lobe is glued flat to a glass slide positioned approximately 2 mm beneath a fiber optic bundle for recording fluorescence from a test compound passing through the ear. After a 100 second baseline recording, 1 mL of a 2 mM solution is injected into the tail-vein of the rat and the fluorescence signal corresponding to plasma and tissue distribution and subsequent renal clearance of the compound is monitored at the ear. The pharmacokinetic parameters of the compounds are analyzed using WinNonLin pharmacokinetic modeling software (Pharsight, Mountain View, Calif.) and Microsoft (Redmond, Wash.) Excel. This method is used to detect renally excretable compounds of the invention and FIG. 6 provides a plot illustrating non-invasive in vivo fluorescence as a function of time following delivery of a renally excretable compound.
3.5. Optical monitoring apparatus and protocol. A nominal 473 nm solid state laser source (100) is employed (Power Technology model LDCU12/7314). […]

[4] = Invasive pharmacokinetic (PK) studies (plasma concentration by HPLC); type: in vivo, Sprague-Dawley rats; details: rat, 1 mL of 2 mM solution i.v., plasma samples 0-120 min, mean ± SEM; for clearance: male, Sprague-Dawley, iv
Description: 3.6. Invasive pharmacokinetic (PK) studies. Male Sprague-Dawley rats (330-380 g) are anesthetized by Inactin (I.P.). Rats are surgically instrumented with a trachea tube (PE-190) to facilitate breathing and femoral artery and vein catheters (PE-50 filled with 20 units/mL heparinized saline) for blood sampling and drug administration respectively. After administration of 1 mL of a 2 mM solution of agent, approximately 200 μL of blood is sampled and placed into a heparinized tube (Microtainer Brand Tube w/Lithium Heparin, BD 365971) at 0, 1, 6, 12, 18, 30, 45, 60, 90, 120 min. The concentration of compound in each centrifuged plasma sample is determined via HPLC analysis using a set of external calibration standards and fluorescence detection. The resulting pharmacokinetic parameters of the compound are analyzed using WinNonLin pharmacokinetic modeling software (Pharsight, Mountain View, Calif.). This method is used to detect renally excretable compounds of the invention and FIG. 8 provides a plot illustrating invasive PK (plasma concentration) as a function of time following delivery of a renally excretable compound.

Photophysical Properties Emission λmax [1] [nm]	Photophysical Properties Excitation λmax [1] [nm]	Percent in Urine (6 hrs) [2]	Tissue clearance (Optical) T1/2β [3]	clearance [4] [mL/min]	Plasma PK Clearance T1/2β [4]	SMILES
611	501	85 ± 2 (3) Percent	20.5 ± 2.5 (3) min	4.3 ± 1.1	15.2 ± 6.7 (2) min	CCCNc1nc(C(=O)NCCOCCOCCOCCOCCOCCOCCOCCOCCOCCOCCOCCOCCOCCOCCOCCOCCOCCOCCOCCOCCOCCOCCOCCOC)c(NCCC)nc1C(=O)NCCOCCOCCOCCOCCOCCOCCOCCOCCOCCOCCOCCOCCOCCOCCOCCOCCOCCOCCOCCOCCOCCOCCOCCOC [Compound 4, 3,6-Bis(propylamino)-N^2,N^5-di(2,5,8,11,14,17,20,23,26,29,32,35,38,41,44,47,50,53,56,59,62,65,68,71-tetracosaoxatriheptacontan-73-yl)pyrazine-2,5-dicarboxamide]
613	498	–	–	3 ± 0.2	21.7 ± 1.3 (3)^b min	CCCNc1nc(C(=O)NCCNC(=O)CCOCCOCCOCCOCCOCCOCCOCCOCCOCCOCCOCCOC)c(NCCC)nc1C(=O)NCCNC(=O)CCOCCOCCOCCOCCOCCOCCOCCOCCOCCOCCOCCOC [Compound 1, N^2,N^5-Bis(38-oxo-2,5,8,11,14,17,20,23,26,29,32,35-dodecaoxa-39-azahentetracontan-41-yl)-3,6-bis(propylamino)pyrazine-2,5-dicarboxamide]
